The numbers were not newly measured in US5656291A, “Controlled release preparation” (Pharmacia & Upjohn Aktiebolag, priority 1995, dated 1997), which cites them from elsewhere.

Each structure is given as a SMILES string.

The conditions of this data set: after oral administration.

As for `CN1CC[C@]23c4c5ccc(O)c4O[C@H]2[C@@H](O)C=C[C@H]3[C@H]1C5` [Morphine], the “duration of analgesic effect” value is 4 to 6 h.
